Measurements: patent US7579006B2, “Method of treating immune pathologies with low dose estrogen” (Oregon Health and Science University, priority 2000, dated 2009)

How the values were obtained:
[1] = system: draining lymph node (DLN) cells; test: Flow cytometry of activation and adhesion markers on DLN cells of SJL mice with EAE; type: in vivo; settings: DLN cells at peak of EAE
Procedure: Immunofluorescent staining for flow cytometry. Draining lymph node (DLN) cells were removed during the peak of clinical symptoms and analyzed for the expression of cell surface proteins by fluorescent staining ex vivo. The following fluorochrome conjugated antibodies obtained from Pharmingen Inc. (San Diego, Calif.) were used for the direct staining of DLN cells: anti-CD4, anti-CD25, anti-CD69, anti-CD95L, anti-CD44, anti-CD62L, anti-CD49d. Two-color immunofluorescent analysis was performed on a FACScan instrument (Becton Dickinson, Mountain View, Calif.) using Cellquest software. For each experiment the cells were stained with isotype control antibodies to establish background staining, and to set the quadrants prior to calculating the percent positive staining cells. […] Alterations in the expression of adhesion or activation markers on T cells are often indicative of functional changes in the cell. Monoclonal antibodies specific for a number of these markers were used to assess whether estrogen therapy altered their expression. Draining lymph node (DLN) cells were recovered from mice during the peak of clinical EAE, incubated with the indicated fluorochrome conjugated monoclonal antibodies, and surface expression measured by fluorescent activated cell analyzer.

[2] = system: spinal cord mononuclear cells; test: Mononuclear cell infiltration into spinal cords of Tg females with EAE; type: in vivo, mice; settings: 0.36 mg pellet
Procedure: Induction of active EAE. EAE was induced, and disease assessed, essentially as described in Example II. Disease onset was defined as the first day of clinical signs, peak—acute phase of EAE—as maximum severity of clinical signs (day 16-17 after immunization with encephalitogenic peptide) and recovery as day 28 post-immunization, when clinical severity of EAE was diminished. The cumulative disease index (CDI) was determined for each mouse by summing the daily clinical scores. Mice selected from control, ovariectomized, and 17β-estradiol treated groups were sacrificed and spinal cords were isolated by insufflation and frozen at −70 C or mononuclear cells were isolated over a Percoll step gradient and counted as described in Offner et al., J. Immunol. 161:2178-2186 (1998). Lymph nodes (LN) or spleens (SPL) were removed surgically and passed through a wire mesh screen to obtain a single-cell suspension. Frozen spinal cords were subsequently thawed and evaluated for expression of chemokines, chemokine receptors and cytokines by the RNase protection assay.

spinal cord mRNA = test: RNase protection assay of chemokine, chemokine receptor and cytokine mRNA in spinal cords of Tg females with EAE; type: in vivo, mice; settings: 0.36 mg pellet
Procedure: RNase protection assay. Total RNA was extracted from frozen spinal cords or lymph node cells using the STAT-60 reagent (Tel-Test, Inc., Friendswood, Tex.). Chemokine expression was determined by using the RiboQuant RPA kit (PharMingen) according to the manufacturer's instructions. A multiprobe set detected the following chemokine transcripts: C—X—C chemokines: MIP-2 and IP-10; C—C chemokines: RANTES, MIP-1α, MCP-1, and TCA-3; and C chemokine: Ltn. The chemokine receptor set detected the following transcripts: CCR1, CCR1b, CCR2, CCR3, CCR4, CCR5. Using RPA multiprobe it was possible to detect the following cytokines: IL-4, IL-10, TNF-α, LTβ, IFN-γ. The sample loading was normalized by the housekeeping gene, L32, included in each template set. RPA analysis was performed on […] total RNA hybridized with probes labeled with [^32P]UTP. After digestion of ssRNA, the RNA pellet was solubilized and resolved on a 5% sequencing gel. Controls included the probe set hybridized to transfer RNA only, appropriate control RNA which serves as integrity control for the RNA sample, and yeast tRNA as a background control. For quantification, gels were exposed by phosphorimaging (Bio-Rad Laboratories, Hercules, Calif.) and radioactivity in individual bands (after background subtraction) in comparison with L32 was assessed with Quantity One software (Bio-Rad Laboratories, Hercules, Calif.).
To optimize detection of clinically-related changes, chemokine expression was compared in 17β-estradiol protected versus sham pellet implanted mice during the peak acute phase of disease (16-17 days after immunization with MBP-Ac1-11 peptide/CFA) and during the chronic phase (28 days after immunization). […] A quantitative method—the RNase protection assay—was employed to examine RNA synthesis for the following chemokines: RANTES, MIP-1α, MCP-1, and TCA-3 (C—C-subfamily); and MIP-2 and IP-10 (C—X—C-subfamily). The tissue sample for RPA was prepared by homogenization of whole spinal cord and total cellular RNA was extracted.

[3] = system: Vβ8.1/8.2 TCR+ spleen cells; test: Intracellular cytokine staining of MOG 35-55 stimulated spleen cells; type: in vivo, mice
Procedure: Intracellular staining for cytokines. Single cell suspensions from spleen were prepared from immunized mice and cultured at 10×10^6 cells/ml in stimulation media containing 50 μg/ml of MOG 35-55. The cells were stimulated for 24 hrs, the last 5 hrs in the presence of Brefeldin A. The cells were then stained with anti-Vβ8.1/8.2 TCR FITC for 30 min at 4° C. prior to fixation and permeabilization with cytofix/cytoperm solution (Pharmingen, Inc.). The cells were then stained with anti-cytokine antibodies labeled with phycoerythrin (anti-mouse IFN-γ, TNF-α, IL-4, IL-10, and IL-12 from Pharmingen Inc.) for 30 min at 4° C. The cells were washed twice in perm/wash buffer (Pharmingen, Inc.) and once in FACS staining buffer (PBS, 1% BSA, 0.05% NaN3) prior to two-color FACS analysis on a FACScan instrument (Beckton-Dickenson, Inc., Sunnyvale, Calif.) using Cell Quest software (Beckton-Dickenson, Inc.). For each experiment the cells were stained with isotype control antibodies to establish background staining and to set the quadrants prior to calculating the percent positive cells.
In order to determine whether estrogen treatment promotes a shift towards Th2 immunity, the frequency of both pro- and anti-inflammatory cytokine producing cells in untreated and E2 treated mice was assessed, using the intracellular cytokine staining technique. Spleen cells were prepared from untreated and E2 treated mice at the peak of EAE (day 12-16 post-immunization) and stimulated with MOG 35-55 for 24 hr, the last […] in the presence of Brefeldin A. The cells were stained with FITC labeled anti-Vβ8.1/8.2 TCR antibodies prior to fixation and permeabilization, and then were stained with the indicated phycoerythrin labeled anti-cytokine antibodies. Vβ8.1/8.2 TCR bearing T cells were focused on because they are thought to comprise a major population of the MOG-35-55 specific T cell responses in H-2b mice.

## C[C@]12CC[C@@H]3c4ccc(O)cc4CC[C@H]3[C@@H]1CC[C@@H]2O [17β-estradiol]
[1]; 0.36 mg pellet
  CD4, % of Total: 49%
  CD25, % of CD4+ T cells: 5.9%
  CD44, % of CD4+ T cells: 43%
  CD62L, % of CD4+ T cells: 7.0%
  CD69, % of CD4+ T cells: 6.6%
  CD49d, % of CD4+ T cells: 45%
  FASL, % of CD4+ T cells: 2.7%
[1]; 2.5 mg pellet
  CD4, % of Total: 49%
  CD25, % of CD4+ T cells: 6.3%
  CD44, % of CD4+ T cells: 41%
  CD62L, % of CD4+ T cells: 6.7%
  CD69, % of CD4+ T cells: 6.5%
  CD49d, % of CD4+ T cells: 43%
  FASL, % of CD4+ T cells: 4.2%
[2]
  Mean clinical score at time of cord removal: 1.3
  Number of cells/cord: 10000 cells/cord
  prevention of infiltration of mononuclear cells into spinal cords: approximately 60%
Spinal cord mRNA
  LT-β, TNF-α and IFN-γ message in spinal cord at peak of EAE: significantly inhibited
Spinal cord mRNA; intact Tg females, peak of disease p<0.001
  chemokine mRNA expression in spinal cord (RANTES, MIP-1α, MIP-2, IP-10, MCP-1): profoundly lower levels
Spinal cord mRNA; ovariectomized females
  chemokine mRNA expression in spinal cord: strongly inhibited
Spinal cord mRNA; p<0.001
  mRNA levels for CCR1, CCR2 and CCR5 in spinal cord: strongly inhibited
[3]; C57BL/6 mice, p=0.004
  frequency of TNF-α producing Vβ8.1/8.2 TCR+ cells: significantly diminished
[3]; IFN-γ knockout mice
  frequency of TNF-α producing Vβ8.1/8.2 TCR+ cells: no further reduction
[3]; IL-4 knockout mice, p=0.06
  frequency of TNF-α producing Vβ8.1/8.2 TCR+ cells: significantly diminished
[3]; IL-10 knockout mice, p=0.001
  frequency of TNF-α producing Vβ8.1/8.2 TCR+ cells: significantly diminished
[3]; trend, p>0.05
  frequency of IFN-γ producing cells: lower frequency
